Measured values as given in PMC8563940 (Scientific Reports, 2021).

Legend:
Type in all cases: biochemical
[1] = biological target: methamidophos-inhibited hAChE (Homo sapiens, UniProt P22303)
[2] = biological target: fenamiphos-inhibited hAChE (Homo sapiens, UniProt P22303)
human AChE = human AChE (Homo sapiens, UniProt P22303)
[3] = biological target: T1, human acetylcholinesterase (hAChE) (Homo sapiens, UniProt P22303); experiment: Progressive inhibition of hAChE by organophosphorus pesticides (Ellman method); conditions: 25 °C, ± SEM; for kinact/KI: read-out: ki, overall second-order rate constant of inhibition (converted)
T1 construct: made in house
T1 sequence (P22303 32-614): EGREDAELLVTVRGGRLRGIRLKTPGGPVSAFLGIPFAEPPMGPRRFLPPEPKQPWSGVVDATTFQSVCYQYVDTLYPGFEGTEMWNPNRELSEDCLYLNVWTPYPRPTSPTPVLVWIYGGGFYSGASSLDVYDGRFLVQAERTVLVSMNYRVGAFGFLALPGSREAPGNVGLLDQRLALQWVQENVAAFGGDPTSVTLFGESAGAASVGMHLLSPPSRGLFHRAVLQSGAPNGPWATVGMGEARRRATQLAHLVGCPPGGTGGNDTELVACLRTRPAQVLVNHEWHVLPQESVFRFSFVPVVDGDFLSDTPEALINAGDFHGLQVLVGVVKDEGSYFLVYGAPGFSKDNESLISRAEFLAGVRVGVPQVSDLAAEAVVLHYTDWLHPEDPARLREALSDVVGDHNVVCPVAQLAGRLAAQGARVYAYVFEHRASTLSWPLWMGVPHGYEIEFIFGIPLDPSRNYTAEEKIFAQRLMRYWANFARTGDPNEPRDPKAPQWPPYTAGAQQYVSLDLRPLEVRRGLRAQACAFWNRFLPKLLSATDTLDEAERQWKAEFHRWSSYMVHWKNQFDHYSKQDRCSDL

[4] = biological target: T2, human butyrylcholinesterase (hBChE) (Homo sapiens, UniProt P06276); experiment: Progressive inhibition of hBChE by organophosphorus pesticides (Ellman method); conditions: for kinact/KI: read-out: ki, overall second-order rate constant of inhibition (converted)
T2 construct: hBChE derived from purified human plasma; from tissue; host or cells: human plasma
T2 sequence (P06276 29-602): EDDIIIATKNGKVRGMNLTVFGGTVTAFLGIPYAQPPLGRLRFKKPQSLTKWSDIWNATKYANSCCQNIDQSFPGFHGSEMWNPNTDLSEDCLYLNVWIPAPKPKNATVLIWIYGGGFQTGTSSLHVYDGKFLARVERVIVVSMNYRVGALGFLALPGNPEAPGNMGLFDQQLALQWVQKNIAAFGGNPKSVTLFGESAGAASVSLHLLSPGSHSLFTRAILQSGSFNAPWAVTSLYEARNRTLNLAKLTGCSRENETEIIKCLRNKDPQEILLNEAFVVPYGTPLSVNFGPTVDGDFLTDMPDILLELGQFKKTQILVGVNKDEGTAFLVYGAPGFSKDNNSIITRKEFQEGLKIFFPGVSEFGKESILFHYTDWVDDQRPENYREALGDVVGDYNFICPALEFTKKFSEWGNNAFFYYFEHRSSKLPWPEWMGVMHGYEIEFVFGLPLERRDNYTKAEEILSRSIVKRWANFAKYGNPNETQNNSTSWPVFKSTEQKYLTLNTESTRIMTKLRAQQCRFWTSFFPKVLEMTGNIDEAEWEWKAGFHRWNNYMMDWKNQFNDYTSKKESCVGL

Chain of human AChE (P22303 32-614): as the sequence (P22303 32-614) above
Chain of fenamiphos-inhibited hAChE (P22303 32-614): as above
Chain of methamidophos-inhibited hAChE (P22303 32-614): as above

Compound | Reactmax (screening) [1] | Reactmax, maximal percentage of reactivation [1] | k2, maximal first-order reactivation rate constant [1] | kobs, observed reactivation rate (screening) [1] | kr, overall second-order reactivation rate constant [1] | t, time to achieve maximum of reactivation (screening) [1] | Reactmax (screening) [2] | Reactmax, maximal percentage of reactivation [2] | k2, maximal first-order reactivation rate constant [2] | kobs, observed reactivation rate (screening) [2] | kr, overall second-order reactivation rate constant [2] | t, time to achieve maximum of reactivation (screening) [2] | Inhibition of AChE with oxime (human AChE) | kmax, first-order inhibition constant ([4]; hBChE, 25 °C, ± SEM) | also measured
ON=Cc1cc[n+](CCC[n+]2ccc(C=NO)cc2)cc1 [TMB-4] | 83% | 80% | 16.5 ± 6.6 min⁻¹ | 4.2338 min -1 | 116,600 ± 12,380 min^−1 M^−1 | 0.16 h | 49% | 65% | 0.082 ± 0.010 min⁻¹ | 0.0177 min -1 | 2.237 ± 0.293 M⁻¹ s⁻¹ | 1 h | 8% | – | –
CCOP(=O)(NC(C)C)Oc1ccc(SC)c(C)c1 (stereo not shown) [Fenamiphos, fenamiphos] | – | – | – | – | – | – | – | – | – | – | – | – | – | 0.16 ± 0.01 min⁻¹ | ki, overall second-order rate constant of inhibition [3]: 3,982 ± 264 min^-1 M^-1; kmax, first-order inhibition constant [3]: 0.21 ± 0.01 min⁻¹; ki, overall second-order rate constant of inhibition ([4]; hBChE, 25 °C, ± SEM): 35,890 ± 8,484 min^-1 M^-1
COP(N)(=O)SC (stereo not shown) [Methamidophos, methamidophos] | – | – | – | – | – | – | – | – | – | – | – | – | – | – | kinact/KI [3]: 46 M⁻¹ s⁻¹; ki lower than that of fenamiphos ([4]; hBChE): 90 fold; kinact/KI ([4]; hBChE, 25 °C, ± SEM): 6.43 M⁻¹ s⁻¹
CCOP(=S)(OCC)SCn1c(=O)oc2cc(Cl)ccc21 [Phosalone, phosalone] | – | – | – | – | – | – | – | – | – | – | – | – | – | 0.23 ± 0.02 min⁻¹ | kinact/KI [3]: 35.5 M⁻¹ s⁻¹; Ki [4]: 97.9 ± 15.3 µM; kinact/KI ([4]; hBChE, 25 °C, ± SEM): 38.9 M⁻¹ s⁻¹
CCCSP(=O)(OCC)SCCC [Ethoprophos, ethoprophos] | – | – | – | – | – | – | – | – | – | – | – | – | – | 0.58 ± 0.05 min⁻¹ | Ki [4]: 36.4 ± 6.68 µM
ON=Cc1cc[n+](CCn2cc(C[n+]3ccccc3C=NO)nn2)cc1 [Oxime 14A] | 68% | 85% | 22.2 ± 3.8 min⁻¹ | 6.7944 min -1 | 108,300 ± 17,090 min^−1 M^−1 | 0.08 h | 42% | 45% | 0.069 ± 0.034 min⁻¹ | 0.0062 min -1 | 1.43 ± 0.413 M⁻¹ s⁻¹ | 3 h | 10% | – | –
C[n+]1ccccc1C=NO [Oxime 2-PAM] | 86% | 80% | 2.7 ± 0.2 min⁻¹ | 1.1558 min -1 | 42,190 ± 2,547 min^−1 M^−1 | 0.36 h | 46% | 70% | 0.003 ± 0.0002 min⁻¹ | 0.0011 min -1 | 0.125 ± 0.025 M⁻¹ s⁻¹ | 20 h | 11% | – | –
